Common to all, as to type: in vivo, rat
The test system of series [1] is ovariectomized female rats. Description: CGRP-induced hot flash response (skin temperature) in ovariectomized rats. The source says: (§1) The animals arrived at approximately 60 days of age, and were placed on specific diets throughout the study (to approximately 160 days of age). The diets were formulated and provided by Dyets Inc. (Bethlehem, Pa.) and are based on a modified AIN-93G diet. These diets were fed ad libitum. Two weeks after arrival, at approximately […] of age, the animals were ovariectomized, allowed to recover for three weeks, and then placed on defined diets. In the first study, these diets contained 0, 0.08, 0.48, 3.2, 18.5, 185, or 3700 μg/kg/day of NMS dihydrochloride (FIG. 2). In the second, follow-up study, the diets contained no NMS (control), NMS oxalate (18.5 or 55.5 μg/kg/d), or milled Zanthoxylum seed in quantities that supplied NMS-glucoside at equivalent doses (18.5 or 55.5 μg/kg/d; FIG. 8). The NMS and NMS-glucoside content was verified using liquid chromatography with mass spectrometric etection. Extraction methods were similar to those of Yanase et al., 2010.
(§2) All diets were fed for 2 weeks prior to the first behavioral assessment (open field). Positive control animals received a 5.0 mm subcutaneous silastic capsule implant packed with a crystalline 17β-estradiol and cholesterol mixture (25%, 0.058 inch inner diameter, 0.077 inch outer diameter; Dow Corning #508-006). Animals were then examined for locomotor activity (open field) and in two behavioral assays to assess mood (elevated plus maze and swim test) separated by two weeks in-between each assay. Two weeks after the final behavioral task (swim test), the animals were anesthetized and their physiological response to an experimentally-induced hot flash was tested. After the temperature monitoring was complete, tissue was harvested while the animals were still anesthetized.
Two weeks after arrival, each animal was anesthetized via isoflurane inhalation and the dorsal mid-lumbar area was shaved and swabbed with surgical scrub, iodine and alcohol. The animal was then placed on a warm heat pad covered by a sterile cloth/pad in ventral recumbency with tail towards surgeon. A 2-3 cm dorsal midline skin incision was made halfway between the caudal edge of the ribcage and the base of the tail. A single transverse incision of 5.5-10 mm long was made into the muscle wall on both the right and left sides approximately ⅓ of the distance between the spinal cord and the ventral midline. The ovary and the oviduct were exteriorized through the muscle wall. A hemostat was clamped around the uterine vasculature between the oviduct and uterus and the uterine vasculature was ligated with dissolvable suture. Each ovary and part of the oviduct was removed with single cuts through the oviducts near the ovary. The hemostat was removed, and the remaining tissue replaced into the peritoneal cavity. The ovary on the other side was removed in a similar manner. The muscle incision is not sutured. Sterile wound clips were used to close the skin incision. Animals were monitored daily for signs of infection or morbidity.
Animals were anesthetized with intraperitoneal co-injection of urethane (750 mg/kg) and α-chloralose (60 mg/kg). […] Thermistor probes (ADI Instruments, Colorado Springs, Colo.) were taped to the plantar surfaces of one hind foot. Forty minutes later, after anesthesia-induced hypothermia had stabilized, the basal skin temperature was recorded. Temperature monitoring then occurred at 5-second intervals throughout the remainder of the experiment. Calcitonin gene related peptide (CGRP; 10 μg/kg, i.v.) dissolved in saline was then injected via the tail vein. A maximum of eight animals were tested at the same time due to limitations on instrumental throughput. Cage mates were always tested together in order to avoid the stresses of single-housing and the potential stress hormone effects on body temperature. Therefore only four groups could be tested within any one given day.

Another series deals with plasma estradiol. Description: Circulating (plasma) estradiol levels in ovariectomized female rats. The following applies: for plasma estradiol: first study, FIG. 5, dietary NMS supplementation, estradiol supplemented animals.
Description: as §1, §2

Series [2] in a line: Body weight of ovariectomized female rats. The note with it: for body weight: FIG. 6A, dietary NMS vs control diet, estradiol implanted, throughout the experiment.
Description: as §1, §2

In series [3] the test system is ovariectomized female rats. The series can be described thus: Uterine weight (uterotrophic effect) in ovariectomized female rats. The following applies: vs ovariectomized controls; for uterine weight: first study, FIG. 6D, after 80 days of supplementation; for uterine weight / uterine growth: follow-up study, FIG. 11A.
Description: as §1, §2

Series [4] concerns ovariectomized female rats. The series can be described thus: Behavioral measures of mood (open field, elevated plus maze, swim test).
Description: as §2, with “After the temperature monitoring was complete, tissue was harvested while the animals were still anesthetized.” left out
Animals were tested in the open field to measure overall locomotor activity and basal anxiety state. […] Rats were placed in the middle of the chamber and behavior in the open field was recorded for thirty minutes with a digital camera and measured by software (AnyMaze, Stoelting Co., Inc.). The following parameters were analyzed: a) total distance traveled; b) time in center; c) center entries; and d) number of fecal boli excreted.
Animals were tested on the elevated plus maze to measure anxiety-related behavior. […] Each rat was placed in the central platform facing one of the open arms, and its behavior was recorded during a 5-min testing period with video capture software (AnyMaze). […]

For series [5], the system named is ovariectomized female rats. Description: Forced swim test (depressive-like behaviors). The following applies: first study, FIG. 7A; estradiol implanted. The method, then: Each rat was examined in the swim test for depressive-like behaviors. The test was performed over two consecutive days since it is a measure of an adaptive response to a perceived inescapable situation. The first test establishes to the animal that it is an inescapable situation, and the second test measures the animal's degree of passive coping derived from an unwillingness to maintain effort in an inescapable situation. Typical antidepressants limit the amount of passive coping (immobility) and promote the amount of active coping (swimming/climbing). On day one (0800 h to 1300 h), animals were acclimated to the test by placing them in a plexiglass cylindrical container (45 cm×20 cm) filled with 30 cm of fresh water (25° C.) for fifteen minutes, after which they were toweled dried and returned to their home cage. On day two (24 hrs later) the test was performed for a total swim time of five minutes, after which the rats were toweled dried and returned to their home cage. Both trials were recorded by a digital video camera was secured to the ceiling above the cylinders and connected to a laptop. Total time spent swimming and immobile was measured real-time by behavioral software (Anymaze, Stoelting Co.), and scored post hoc by a blinded experimenter from captured video. […]

The mark [6] stands for this setting: first study, representative data FIG. 3, 0.48 ug/kg/d NMS through diet vs untreated controls.
Setting [7] is: first study, dietary NMS, dose not stated, estradiol subcutaneous, no dietary NMS (positive control).
The mark [8] stands for this setting: first study, dietary NMS, dose not stated, estradiol subcutaneous, no dietary NMS (positive control), CGRP 10 μg/kg i.v.
Setting [9] is: follow-up study, FIG. 9, milled Zanthoxylum seed supplying NMS-glucoside 18.5 or 55.5 μg/kg/d, NMS oxalate 18.5 or 55.5 μg/kg/d, or estradiol, vs untreated controls.

“Also recorded” adds a separate entry of the source.

Consider `CNCCc1c[nH]c2ccc(O)cc12` [NMS, N-methylserotonin], for which the basal skin temperature entry in series [1] (first study, FIG. 3 and 4, 18.5 ug/kg/d NMS through diet vs untreated controls) is recorded as “lower basal temperatures; also recorded: decreased basal skin temperature”; in series [1] (setting [6]) it was “lower basal temperatures”. Moreover, the “CGRP response above calculated baseline (skin temperature)” value was “lower CGRP responses” in series [1] (setting [6]) and “lower CGRP responses” in series [1] (first study, representative data FIG. 3, 18.5 ug/kg/d NMS through diet vs untreated controls). Further, the “basal (baseline) skin temperature” value in series [1] (setting [7]) is reported as “reduced baseline skin temperature”. Also, the “CGRP-induced hot flash response” value in series [1] (setting [8]) and in series [1] (setting [9]) was “blunted the CGRP-induced hot flash response” in each case. Moreover, the plasma estradiol entry in the series with plasma estradiol is “increased plasma estradiol in a dose-dependent manner”. Further, the non-uterine estradiol secretion result in the series with plasma estradiol (results summary) is “tripled”. Also, the body weight result in series [2] (first study) is given as “did not alter body weight”. In series [2] (first study, FIG. 6B and C, throughout or at the end of the study), the “weight change as a percentage of original weight” value is listed as “not different between dietary treatments”. Besides, the uterine weight entry in series [3] is “did not alter uterine weight”. Moreover, the “uterine weight / uterine growth” value in series [3] was “did not alter uterine weight”. In addition, the “behavioral measures of mood” value in series [4] (first study, FIG. 7, dietary NMS) was “did not alter behavioral measures of mood”. For the same molecule, the “behavioral measures of mood / mood-related behaviors” value in series [4] (follow-up study, FIG. 10) was “did not alter behavioral measures of mood”.
On to `CNCCc1c[nH]c2ccc(O[C@@H]3O[C@H](CO)[C@@H](O)[C@H](O)[C@H]3O)cc12` [NMS-glucoside, N-methylserotonin 5-O-β-glucoside], for which the “CGRP-induced hot flash response” value in series [1] (setting [9]) was “blunted the CGRP-induced hot flash response”.
With `C[C@]12CC[C@@H]3c4ccc(O)cc4CC[C@H]3[C@@H]1CC[C@@H]2O` [estradiol, 17β-estradiol, reference compound], the “basal (baseline) skin temperature” value in series [1] (setting [7]) is “lowest basal temperatures”. For the same molecule, in series [1] (setting [8]), the “CGRP-induced hot flash response” value is on record as “lowest responses to CGRP”. Further, the “CGRP-induced hot flash response” value in series [1] (setting [9]) is reported as “blunted the CGRP-induced hot flash response”. Moreover, the plasma estradiol result in the series on plasma estradiol is “highest levels of plasma estradiol”. In series [2] (first study), the body weight entry is given as “significantly lower body weight”. Moreover, in series [2] (follow-up study, FIG. 11B, estradiol implanted vs all other groups), the “body weight throughout the experiment” value is reported as “significantly lower body weight”. In series [3], the uterine weight result is “significantly higher uterine weights” and the “uterine weight / uterine growth” value was “significantly higher uterine weights”. The “time immobile during the second session of the forced swim test” value in series [5] was “spent less time immobile”.

The values above are taken from patent US20150320783A1, “N-METHY[…] RELATED SUBSTANCES FOR USE IN TREATING / LESSENING THE OCCURRENCE OF HOT FLASHES RELATED TO MENOPAUSE” (DSM IP ASSETS B.V., priority 2013, published 2015).
